The results in this text go back to patent US7981903B2, “2-[2-{phenylamino}-1H-pyrrolo[2,3-D]pyrimidin-4-yl)amino] benzamide derivatives as IGF-1R inhibitors for the treatment of cancer” (GlaxoSmithKline LLC, priority 2007, dated 2011).

Where “and” joins values, the source holds several entries; their conditions need not be identical. Identical values can stand only once.

Assay [1] deals with T1, NIH-3T3 cells overexpressing human IGF-1R (Homo sapiens, UniProt P08069).
T1 construct: expressed in transfected cells; host or cells: NIH-3T3 (mouse fibroblasts)
Briefly: IGF-1R cellular autophosphorylation (DELFIA). It is filed as cell-based. In short, it runs like this:
(§1)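 Receptor autophosphorylation measured by DELFIA, capturing IGF-1R or IRβ and detecting with europium anti-pTyr, reported as percent of IGF-1- or insulin-stimulated signal. Compounds (30 uM to 1.5 nM) added 2 h before ligand, then 15 min stimulation (IGF-1 30 ng/ml or insulin 3 ug/ml).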

Another assay has as its target T2, human IR (hIR) (Homo sapiens, UniProt P06213).
T2 construct: containing amino acid residues 979-1382 of human IR; made in house; host or cells: Sf9 cells (baculovirus), same process as hIGF1R
Briefly: TR-FRET kinase assay of purified hIR. To be noted: activated hIR 0.5 nM, 10 μM ATP, values given as pIC50 category. It is filed as biochemical. On the technique in general: TR-FRET usually uses a lanthanide donor and a delayed reading to cut background.

Assay [2] deals with T3, NIH-3T3 cells overexpressing human IR (Homo sapiens, UniProt P06213).
T3 construct: expressed in transfected cells; host or cells: NIH-3T3 (mouse fibroblasts)
Briefly: IR cellular autophosphorylation (DELFIA). It is filed as cell-based. To be noted: 2 h compound, insulin 3 ug/ml for 15 minutes, IC50 category. In short, it runs like this:
as §1

A further assay deals with ALK (Homo sapiens, UniProt Q9UM73). The assay is described as follows: ALK enzyme assay (HTRF). The assay is classed as biochemical. To be noted: 0.25 nM ALK, 15.0 μM ATP, values given as pIC50 category. In short, it runs like this: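 Final compound range 0.00017 to 10 μM (twelve 1:3 dilutions). Kinase reaction with ATP and biotinylated synthetic peptide runs 120 min at 20° C, stopped with EDTA; phosphotyrosine detected by HTRF after 60 min. Inhibition referenced to DMSO (1%) and EDTA (0.1 M) controls, curve-fitted.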
Chain of ALK (Q9UM73 19-1620): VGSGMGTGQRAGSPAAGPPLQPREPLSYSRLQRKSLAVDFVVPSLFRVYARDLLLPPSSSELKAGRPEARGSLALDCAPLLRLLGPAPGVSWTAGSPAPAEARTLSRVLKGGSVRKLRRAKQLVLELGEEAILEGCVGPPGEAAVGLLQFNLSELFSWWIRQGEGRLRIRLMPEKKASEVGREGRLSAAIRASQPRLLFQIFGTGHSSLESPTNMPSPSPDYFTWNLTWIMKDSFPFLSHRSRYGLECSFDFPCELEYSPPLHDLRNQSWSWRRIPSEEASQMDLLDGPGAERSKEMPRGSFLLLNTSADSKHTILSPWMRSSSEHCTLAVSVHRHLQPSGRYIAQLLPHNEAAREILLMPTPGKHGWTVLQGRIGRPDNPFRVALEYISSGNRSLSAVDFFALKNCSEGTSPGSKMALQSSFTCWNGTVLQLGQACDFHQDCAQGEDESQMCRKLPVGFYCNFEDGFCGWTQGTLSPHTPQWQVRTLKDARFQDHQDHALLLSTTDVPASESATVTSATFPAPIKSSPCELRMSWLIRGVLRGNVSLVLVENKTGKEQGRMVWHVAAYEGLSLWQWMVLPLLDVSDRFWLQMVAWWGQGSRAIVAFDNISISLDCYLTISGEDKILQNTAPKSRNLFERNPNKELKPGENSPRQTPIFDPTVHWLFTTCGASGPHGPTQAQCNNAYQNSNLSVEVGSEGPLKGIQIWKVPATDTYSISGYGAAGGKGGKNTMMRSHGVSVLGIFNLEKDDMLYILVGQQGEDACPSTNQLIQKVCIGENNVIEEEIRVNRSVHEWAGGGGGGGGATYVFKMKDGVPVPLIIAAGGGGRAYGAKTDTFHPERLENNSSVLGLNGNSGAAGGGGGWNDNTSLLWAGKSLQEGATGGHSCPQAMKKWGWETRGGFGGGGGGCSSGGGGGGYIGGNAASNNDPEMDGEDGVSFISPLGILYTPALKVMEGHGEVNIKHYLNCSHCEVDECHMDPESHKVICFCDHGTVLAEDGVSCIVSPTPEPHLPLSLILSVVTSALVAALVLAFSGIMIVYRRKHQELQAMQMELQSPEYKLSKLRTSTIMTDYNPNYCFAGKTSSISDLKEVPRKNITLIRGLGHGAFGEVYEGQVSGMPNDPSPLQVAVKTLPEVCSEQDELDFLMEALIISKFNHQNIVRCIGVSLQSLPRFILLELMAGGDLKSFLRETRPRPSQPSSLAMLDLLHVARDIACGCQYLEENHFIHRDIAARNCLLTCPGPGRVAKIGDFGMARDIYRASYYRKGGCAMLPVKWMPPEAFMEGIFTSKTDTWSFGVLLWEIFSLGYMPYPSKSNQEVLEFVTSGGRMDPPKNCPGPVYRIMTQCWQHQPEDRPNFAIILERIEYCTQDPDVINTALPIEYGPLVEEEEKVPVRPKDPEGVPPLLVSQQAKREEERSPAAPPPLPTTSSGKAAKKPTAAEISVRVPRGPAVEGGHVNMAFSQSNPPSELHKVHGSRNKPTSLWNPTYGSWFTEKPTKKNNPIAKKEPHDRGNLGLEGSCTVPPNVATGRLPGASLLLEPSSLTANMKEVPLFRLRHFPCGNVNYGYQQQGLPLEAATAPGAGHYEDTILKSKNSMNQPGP

T3 sequence (P06213 28-1382): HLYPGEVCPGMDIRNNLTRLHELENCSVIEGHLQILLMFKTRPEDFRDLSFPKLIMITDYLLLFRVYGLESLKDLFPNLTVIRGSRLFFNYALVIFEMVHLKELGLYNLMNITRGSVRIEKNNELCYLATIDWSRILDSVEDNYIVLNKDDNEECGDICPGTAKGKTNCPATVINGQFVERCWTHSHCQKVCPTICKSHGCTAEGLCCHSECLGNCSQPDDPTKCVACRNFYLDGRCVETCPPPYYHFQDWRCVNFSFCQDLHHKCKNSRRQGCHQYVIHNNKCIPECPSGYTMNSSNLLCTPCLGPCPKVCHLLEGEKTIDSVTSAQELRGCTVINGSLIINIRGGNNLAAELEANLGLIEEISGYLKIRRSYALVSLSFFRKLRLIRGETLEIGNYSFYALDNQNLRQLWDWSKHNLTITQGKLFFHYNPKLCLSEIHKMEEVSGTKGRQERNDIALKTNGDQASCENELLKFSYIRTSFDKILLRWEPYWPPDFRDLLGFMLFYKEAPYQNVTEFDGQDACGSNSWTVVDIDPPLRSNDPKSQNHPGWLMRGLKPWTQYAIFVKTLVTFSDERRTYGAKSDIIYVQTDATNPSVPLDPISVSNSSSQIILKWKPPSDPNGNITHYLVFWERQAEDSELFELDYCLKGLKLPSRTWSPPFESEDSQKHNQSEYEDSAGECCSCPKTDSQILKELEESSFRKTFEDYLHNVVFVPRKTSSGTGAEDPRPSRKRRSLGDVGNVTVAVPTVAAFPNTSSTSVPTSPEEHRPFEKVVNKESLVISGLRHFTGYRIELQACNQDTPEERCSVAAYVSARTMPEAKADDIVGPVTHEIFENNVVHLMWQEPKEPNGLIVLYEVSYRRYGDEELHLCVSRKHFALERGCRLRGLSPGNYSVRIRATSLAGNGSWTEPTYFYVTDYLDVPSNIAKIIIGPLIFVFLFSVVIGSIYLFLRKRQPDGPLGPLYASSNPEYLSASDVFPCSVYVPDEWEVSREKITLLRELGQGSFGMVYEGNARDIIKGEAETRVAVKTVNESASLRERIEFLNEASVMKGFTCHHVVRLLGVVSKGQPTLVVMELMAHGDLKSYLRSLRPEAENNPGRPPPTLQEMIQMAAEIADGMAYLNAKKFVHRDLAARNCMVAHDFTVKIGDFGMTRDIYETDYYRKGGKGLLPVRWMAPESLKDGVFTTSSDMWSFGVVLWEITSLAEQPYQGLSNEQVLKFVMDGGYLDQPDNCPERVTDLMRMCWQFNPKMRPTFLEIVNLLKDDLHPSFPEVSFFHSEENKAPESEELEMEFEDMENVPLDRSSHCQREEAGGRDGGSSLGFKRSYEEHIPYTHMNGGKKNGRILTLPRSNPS
T2 sequence (P06213 979-1382): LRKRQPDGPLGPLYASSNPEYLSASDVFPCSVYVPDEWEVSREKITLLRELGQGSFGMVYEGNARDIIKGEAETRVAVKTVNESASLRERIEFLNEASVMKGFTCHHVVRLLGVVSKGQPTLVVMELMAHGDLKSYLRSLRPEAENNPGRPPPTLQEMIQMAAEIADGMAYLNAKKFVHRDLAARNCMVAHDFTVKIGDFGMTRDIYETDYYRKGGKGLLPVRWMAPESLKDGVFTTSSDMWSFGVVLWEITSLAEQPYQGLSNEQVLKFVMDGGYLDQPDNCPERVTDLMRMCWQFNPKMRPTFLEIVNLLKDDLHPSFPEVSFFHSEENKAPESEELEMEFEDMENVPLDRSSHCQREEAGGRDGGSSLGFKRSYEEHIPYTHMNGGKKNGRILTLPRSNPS
T1 sequence (P08069 31-1367): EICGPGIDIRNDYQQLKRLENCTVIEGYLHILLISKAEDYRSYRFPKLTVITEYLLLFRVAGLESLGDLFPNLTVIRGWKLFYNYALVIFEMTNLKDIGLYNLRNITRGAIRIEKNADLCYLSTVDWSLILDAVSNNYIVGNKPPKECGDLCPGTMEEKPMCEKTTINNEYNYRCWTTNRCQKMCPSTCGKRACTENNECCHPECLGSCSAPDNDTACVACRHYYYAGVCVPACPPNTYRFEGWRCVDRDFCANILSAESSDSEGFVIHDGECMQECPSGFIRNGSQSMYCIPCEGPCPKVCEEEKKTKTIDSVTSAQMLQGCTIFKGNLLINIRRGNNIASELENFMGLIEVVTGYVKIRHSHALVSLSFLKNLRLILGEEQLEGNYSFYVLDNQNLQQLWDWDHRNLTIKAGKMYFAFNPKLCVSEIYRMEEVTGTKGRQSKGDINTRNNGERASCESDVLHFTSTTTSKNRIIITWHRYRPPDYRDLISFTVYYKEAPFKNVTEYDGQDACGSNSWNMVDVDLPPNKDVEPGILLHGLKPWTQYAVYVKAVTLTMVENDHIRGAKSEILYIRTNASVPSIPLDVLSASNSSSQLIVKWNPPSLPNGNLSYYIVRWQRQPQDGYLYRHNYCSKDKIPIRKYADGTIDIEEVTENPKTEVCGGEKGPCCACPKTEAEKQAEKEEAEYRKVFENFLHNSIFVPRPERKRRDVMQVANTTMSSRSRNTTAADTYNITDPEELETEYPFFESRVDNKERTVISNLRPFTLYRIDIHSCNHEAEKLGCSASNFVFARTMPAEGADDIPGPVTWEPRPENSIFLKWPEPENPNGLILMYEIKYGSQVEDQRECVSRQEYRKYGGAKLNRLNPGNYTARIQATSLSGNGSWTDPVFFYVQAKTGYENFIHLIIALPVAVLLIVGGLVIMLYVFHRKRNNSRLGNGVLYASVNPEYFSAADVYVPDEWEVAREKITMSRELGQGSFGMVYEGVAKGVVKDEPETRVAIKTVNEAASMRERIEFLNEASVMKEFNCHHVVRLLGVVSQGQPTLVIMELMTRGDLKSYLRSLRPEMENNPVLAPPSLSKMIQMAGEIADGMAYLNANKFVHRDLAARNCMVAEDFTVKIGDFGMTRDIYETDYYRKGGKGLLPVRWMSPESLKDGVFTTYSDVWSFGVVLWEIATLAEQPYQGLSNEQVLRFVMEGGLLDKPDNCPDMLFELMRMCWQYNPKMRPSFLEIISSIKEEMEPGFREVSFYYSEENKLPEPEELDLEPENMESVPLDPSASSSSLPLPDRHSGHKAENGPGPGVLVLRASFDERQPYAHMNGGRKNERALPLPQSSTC

As for `COc1cc(N2CCN(C(C)C)CC2)ccc1Nc1nc(Nc2cccc3c2C(=O)NC3)c2cc[nH]c2n1` [Example 199, 7-[(2-{[4-[4-(1-methylethyl)-1-piperazinyl]-2-(methyloxy)phenyl]amino}-1H-pyrrolo[2,3-d]pyrimidin-4-yl)amino]-2,3-dihydro-1H-isoindol-1-one], the IC50 in assay [1] is under 100 nM; on human IR (hIR), 1.26 to 3.98 nM; in assay [2] it was under 100 nM; on ALK, 0.251 to 1 nM.

Consider `CCCN1CCC(COc2ccc(Nc3nc(Nc4cccc(F)c4C(N)=O)c4cc[nH]c4n3)c(OC)c2)CC1` [Example 206, 2-fluoro-6-({2-[(2-(methyloxy)-4-{[(1-propyl-4-piperidinyl)methyl]oxy}phenyl)amino]-1H-pyrrolo[2,3-d]pyrimidin-4-yl}amino)benzamide], for which the IC50 in assay [1] is 100 to 500 nM; against human IR (hIR) it was 1.26 to 3.98 nM; in assay [2], 100 to 500 nM; against ALK it was 1.26 to 3.98 nM.

For the compound `COc1cc(N2CCCN(C)CC2)ccc1Nc1nc(Nc2cccc(F)c2C(N)=O)c2cc[nH]c2n1` [Example 209, 2-fluoro-6-[(2-{[4-(4-methylhexahydro-1H-1,4-diazepin-1-yl)-2-(methyloxy)phenyl]amino}-1H-pyrrolo[2,3-d]pyrimidin-4-yl)amino]benzamide], the concentration for half-maximal inhibition (IC50) in assay [1] is 100 to 500 nM; at human IR (hIR), 1.26 to 3.98 nM; in assay [2], 100 to 500 nM; on ALK it was 0.251 to 1 nM.

In the case of `CNC(=O)c1c(F)cccc1Nc1nc(Nc2cc3c(cc2OC)CCCN3C(=O)CN(C)C)nc2[nH]ccc12` [Example 212, 2-[(2-{[1-(N,N-dimethylglycyl)-6-(methyloxy)-1,2,3,4-tetrahydro-7-quinolinyl]amino}-1H-pyrrolo[2,3-d]pyrimidin-4-yl)amino]-6-fluoro-N-methylbenzamide], the IC50 in assay [1] was 100 to 500 nM; against human IR (hIR) it was 1.26 to 3.98 nM; in assay [2], 100 to 500 nM; on ALK, 1.26 to 3.98 nM.

On to `CNC(=O)c1c(F)cccc1Nc1nc(Nc2cc3c(cc2OC)CCCN3C(=O)CN2CCCCC2)nc2[nH]ccc12` [Example 217, 2-fluoro-N-methyl-6-[(2-{[6-(methyloxy)-1-(1-piperidinylacetyl)-1,2,3,4-tetrahydro-7-quinolinyl]amino}-1H-pyrrolo[2,3-d]pyrimidin-4-yl)amino]benzamide], for which the IC50 in assay [1] is under 100 nM; at human IR (hIR), 1.26 to 3.98 nM; in assay [2], under 100 nM; at ALK, 5.01 to 200 nM.

Consider `COc1cc2c(cc1Nc1nc(Nc3cccc(F)c3C(N)=O)c3cc[nH]c3n1)CN(CCF)CC2` [Example 233, 2-fluoro-6-[(2-{[2-(2-fluoroethyl)-6-(methyloxy)-1,2,3,4-tetrahydro-7-isoquinolinyl]amino}-1H-pyrrolo[2,3-d]pyrimidin-4-yl)amino]benzamide], for which the IC50 in assay [1] is 100 to 500 nM; against human IR (hIR), 1.26 to 3.98 nM; in assay [2] it was under 100 nM; at ALK, 1.26 to 3.98 nM.

For `COc1cc2c(cc1Nc1nc(Nc3cccc(F)c3C(N)=O)c3cc[nH]c3n1)CN(C(C)C)CC2` [Example 236, 2-fluoro-6-[(2-{[2-(1-methylethyl)-6-(methyloxy)-1,2,3,4-tetrahydro-7-isoquinolinyl]amino}-1H-pyrrolo[2,3-d]pyrimidin-4-yl)amino]benzamide], the IC50 is 100 to 500 nM in assay [1], 1.26 to 3.98 nM against human IR (hIR), 100 to 500 nM in assay [2] and 1.26 to 3.98 nM at ALK.

As for `CCC(C)N1CCc2cc(OC)c(Nc3nc(Nc4cccc(F)c4C(N)=O)c4cc[nH]c4n3)cc2C1` (stereo not drawn) [Example 237, 2-fluoro-6-[(2-{[6-(methyloxy)-2-(1-methylpropyl)-1,2,3,4-tetrahydro-7-isoquinolinyl]amino}-1H-pyrrolo[2,3-d]pyrimidin-4-yl)amino]benzamide], the IC50 in assay [1] was 100 to 500 nM; on human IR (hIR), 1.26 to 3.98 nM; in assay [2] it was under 100 nM; on ALK it was 1.26 to 3.98 nM.

Regarding `COc1cc2c(cc1Nc1nc(Nc3cc(F)cc(F)c3C(N)=O)c3cc[nH]c3n1)CN(CCF)CC2` [Example 239, 2,4-difluoro-6-[(2-{[2-(2-fluoroethyl)-6-(methyloxy)-1,2,3,4-tetrahydro-7-isoquinolinyl]amino}-1H-pyrrolo[2,3-d]pyrimidin-4-yl)amino]benzamide], the IC50 was over 500 nM in assay [1], 1.26 to 3.98 nM against human IR (hIR), over 500 nM in assay [2] and 1.26 to 3.98 nM against ALK.

For the compound `CNC(=O)c1c(F)cccc1Nc1nc(Nc2cc(NC(=O)CN(C)C)ccc2OC)nc2[nH]ccc12` [Example 245, 2-[(2-{[5-[(N,N-dimethylglycyl)amino]-2-(methyloxy)phenyl]amino}-1H-pyrrolo[2,3-d]pyrimidin-4-yl)amino]-6-fluoro-N-methylbenzamide], the IC50 in assay [1] was over 500 nM; against human IR (hIR), 0.251 to 1 nM and 1.26 to 3.98 nM; in assay [2], over 500 nM; on ALK, 0.251 to 1 nM.

For `Cc1cc2c(cc1Nc1nc(Nc3cccc(F)c3C(N)=O)c3cc[nH]c3n1)N(C(=O)CN(C)C)CCC2` [Example 246, 2-[(2-{[1-(N,N-dimethylglycyl)-6-methyl-1,2,3,4-tetrahydro-7-quinolinyl]amino}-1H-pyrrolo[2,3-d]pyrimidin-4-yl)amino]-6-fluorobenzamide], the IC50 is 100 to 500 nM in assay [1]; 0.251 to 1 nM and 1.26 to 3.98 nM against human IR (hIR); 100 to 500 nM in assay [2]; 5.01 to 200 nM at ALK.

As to `CNC(=O)c1c(F)cccc1Nc1nc(Nc2cc3c(cc2OC)CCN3C(=O)CN(C)C)nc2[nH]cc(F)c12` [Example 253, 2-[(2-{[1-(N,N-dimethylglycyl)-5-(methyloxy)-2,3-dihydro-1H-indol-6-yl]amino}-5-fluoro-1H-pyrrolo[2,3-d]pyrimidin-4-yl)amino]-6-fluoro-N-methylbenzamide], the IC50 in assay [1] is 100 to 500 nM; against human IR (hIR), 1.26 to 3.98 nM; in assay [2], 100 to 500 nM; against ALK, 0.251 to 1 nM.

A word on the IC50: it is the point on the concentration scale where inhibition reaches its midpoint. Low values mean greater potency, high ones weaker potency.
